≈ marks a conversion by molar mass, not a printed value.
Tests used:
[1] = system: H37Rv; experiment: microbe, parasite or virus in culture; format: cell-based; conditions: Mycobacterium tuberculosis, read-out: MIC
[2] = system: Mtb H37Rv; format: cell-based, M. tuberculosis
[3] = system: Erdman (mmpR5 E21K); format: cell-based, M. tuberculosis
[4] = system: mixed mmpL3 mutant pool (24 unique Mtb mmpL3 mutants); format: cell-based, M. tuberculosis
[5] = system: WT Mtb Erdman; format: cell-based, M. tuberculosis; conditions: area under the dose-response curve
[6] = system: H37Rv (rpoB S450L); format: cell-based, M. tuberculosis
[7] = system: Mtb; conditions: cited from earlier work
[8] = system: H37Rv (gyrA D94K); format: cell-based, M. tuberculosis

Structure (SMILES) | MIC [1] | Frequency of resistance, 2 × MIC [2] | Frequency of resistance, 8 × MIC [2] | Frequency of resistance, 16 × MIC [2] | EC50 [3] | Mixed mmpL3 AUC [4] | WT AUC [5] | MIC, H37Rv (rpoB S450L) [6] | in vitro frequency of resistance (FoR) [7] | MIC, H37Rv (gyrA D94K) [8] | activity (MIC) against the rpoB S450L strain [6]
O=[N+]([O-])c1cn2c(n1)OC[C@@H](OCc1ccc(OC(F)(F)F)cc1)C2 [Pretomanid] | 0.5 µg/mL (≈ 1.39 µM) | 1.79 × 10^−6 | 8.57 × 10^−7 | 1.43 × 10^−7 |  |  |  |  |  |  | 
CO[C@H]1/C=C/O[C@@]2(C)Oc3c(C)c(O)c4c(O)c(c(/C=N/N5CCN(C)CC5)c(O)c4c3C2=O)NC(=O)/C(C)=C\C=C\[C@H](C)[C@H](O)[C@@H](C)[C@@H](O)[C@@H](C)[C@H](OC(C)=O)[C@@H]1C [Rifampicin] | 0.5 µg/mL (≈ 0.608 µM) | 5.36 × 10^−7 | 7.14 × 10^−8 | 3.57 × 10^−8 |  |  |  |  |  |  | 
CC1COc2c(N3CCN(C)CC3)c(F)cc3c(=O)c(C(=O)O)cn1c23 (centres unmarked) [Ofloxacin] | 1 µg/mL (≈ 2.77 µM) | 5.36 × 10^−7 | 7.14 × 10^−8 | 3.57 × 10^−8 |  |  |  |  |  |  | 
CC(C)/N=c1\cc2n(-c3ccc(Cl)cc3)c3ccccc3nc-2cc1Nc1ccc(Cl)cc1 [Clofazimine] |  |  |  |  | 1600 nM |  |  |  |  |  | 
CC(C)N(C(=O)CNc1nc2cc(Cl)c(Cl)cc2[nH]1)C(C)C [MSU-43165] |  |  |  |  |  | 147.2 | 214.5 |  |  |  | 
NNC(=O)c1ccncc1 [Isoniazid] | 0.125 µg/mL (≈ 0.911 µM) | 5.0 × 10^−6 | 3.93 × 10^−6 | 2.71 × 10^−6 |  |  |  | 0.4 µM (≈ 0.0549 µg/mL) | 10^−6 | 0.2 µM (≈ 0.0274 µg/mL) | 
CC[C@@H](CO)NCCN[C@@H](CC)CO [Ethambutol] | 1 µg/mL (≈ 4.89 µM) | 3.61 × 10^−6 | 8.57 × 10^−7 | 1.79 × 10^−8 |  |  |  |  |  |  | 
COc1c(N2C[C@@H]3CCCN[C@@H]3C2)c(F)cc2c(=O)c(C(=O)O)cn(C3CC3)c12 [Moxifloxacin] |  |  |  |  |  |  |  | 0.15 µM (≈ 0.0602 µg/mL) |  | >5.0 µM | 
CC(C)N(C(=O)COc1nc2cc(Cl)c(Cl)cc2[nH]1)C(C)C [MSU-43170] |  |  |  |  |  | 160.3 | 247.5 |  |  |  | 
Cc1cc2nc(SCC(=O)N(C(C)C)C(C)C)[nH]c2cc1C [MSU-42766] | 0.5 µg/mL (≈ 1.57 µM) | 1.36 × 10^−6 | 8.0 × 10^−8 | 0 | 1800 nM | 73.44 | 169.9 | 0.8 µM (≈ 0.256 µg/mL) |  | 1.5 µM (≈ 0.479 µg/mL) | 0.25 µg/mL
Cc1ccc2nc(SCC(=O)N(C(C)C)C(C)C)[nH]c2c1 [HC2183] |  |  |  |  |  | 34.08 | 101.7 |  |  |  | 
COc1nc2ccc(Br)cc2cc1[C@@H](c1ccccc1)[C@@](O)(CCN(C)C)c1cccc2ccccc12 [Bedaquiline] | 2 µg/mL (≈ 3.6 µM) | 1.43 × 10^−7 | 3.57 × 10^−8 | 3.57 × 10^−8 | 910 nM |  |  |  |  |  | 
